Experimental data: US7517851B2, “Chlamydia oligosaccharides” (priority 1996, dated 2009)
Read-outs that look alike come from different tables or passages of the source.

System: Chlamydia trachomatis L2/434/Bu
Assay type: cell-based
Settings: HeLa cells, maximum concentration (20 μg) tested

oligomannose 9 was tested, and the “% INHIBITION (infectivity inhibition)” value (first of two separate sets of experiments) was 64% and the “% INHIBITION (infectivity inhibition)” value (second of two separate sets of experiments) was 62%.
